Results as given in patent publication US20070081951A1, “Prevention of dental plaque and dental calculus in animals” (priority 2005, published 2007).

Experiments:
[1] = system: Streptococcus parasanguis (FW213); assay: Zones of inhibition of growth on TSA agar plates, Streptococcus parasanguis (FW213); format: cell-based; conditions: for Zones of Inhibition of Growth, FW213: 20 ul specimen on TSA agar lawn, 37° C., 5% CO2, read at 24 and 48 h, CPC 0.05%, CHX 0.1%, acids 1% (wt. %)
Description: (§1) This study was conducted to determine whether anti-calculus agents inhibit the antimicrobial activity of cetyl pyridium chloride […] and chlorhexidine (CHX).
(§2) Experimental Design: TSA agar plates were individually swabbed with fresh 24 h broth cultures of Streptococcus mutans (TH16), Streptococcus parasanguis (FW213) and Actinomyces viscosus (AV) to provide a confluent lawn of bacterial growth. Five minutes after swabbing the plates (to allow the inoculum to absorb into the agar), 20 ul of each test specimen (see below) was placed onto designated places on the plates and allowed to absorb into the agar. The plates were incubated agar-side up at 37° C. in 5% CO2 for 48 h. Plates were examined at 24 and 48 h for zones of inhibition of growth for each bacterial species. The diameter of each zone was measured in mm. The zones of inhibition of each mixture (anti-calculus and antimicrobial agents) were compared to the zones of each agent separately. If the zones of the mixtures were the same size (or larger) than the inhibition zones from the antimicrobial agent alone then there was no inhibition of antimicrobial activity by the anti-calculus agent.
(§3) Test Specimens: There were 12 different samples/test specimens used in this experiment. Test groups included (concentrations are wt. %): cetyl pyridium chloride ([…]; commercially available from ICN Biomedicals, Inc., Aurora, Ohio) at a concentration of 0.05%; CPC at 0.05%+1.0% malic acid; CPC at 0.05%+1% fumaric acid; CPC at 0.05%+1% citric acid; chlorhexidine (CHX; commercially available ICN Biomedicals, Inc., Aurora, Ohio) at 0.1% alone; CHX at 0.1%+1% malic acid; CHX at 0.1%+1% fumaric acid; CHX at 0.1%+1% citric acid; 1% malic acid; 1% fumaric acid; 1% citric acid.
(§4) Results: See Table 1 (below). This study was designed to determine whether or not the polycarboxylic acids (anti-calculus agents) altered the activity of the anti-microbial agents. Decreases in the width of the zone of inhibition when the polycarboxylic acid is combined with the antimicrobial agent, as compared to the width of the zone of inhibition for the antimicrobial agent alone, is an indication that the polycarboxylic acid reduced the activity of the anti-microbial agent. Differences in the width of the zone of inhibition of ±3 mm are not considered to be significant.

[2] = system: Streptococcus mutans (TH16); assay: Zones of inhibition of growth on TSA agar plates, Streptococcus mutans (TH16); format: cell-based; conditions: for Zones of Inhibition of Growth, TH16: 20 ul specimen on TSA agar lawn, 37° C., 5% CO2, read at 24 and 48 h, CPC 0.05%, CHX 0.1%, acids 1% (wt. %)
Description: as §1, §2, §3, §4

[3] = system: Actinomyces viscosus (AV); assay: Zones of inhibition of growth on TSA agar plates, Actinomyces viscosus (AV); format: cell-based; conditions: for Zones of Inhibition of Growth, AV: 20 ul specimen on TSA agar lawn, 37° C., 5% CO2, read at 24 and 48 h, CPC 0.05%, CHX 0.1%, acids 1% (wt. %)
Description: as §1, §2, §3, §4

dental plaque in cats = assay: Example 3: antimicrobial rinses in cats, 4-week dental plaque formation; format: in vivo; conditions: 4-week test periods, clinical plaque grading
Description: The presence of dental plaque was assessed clinically by disclosing the plaque with an aqueous solution containing 1.5% D&C Red #28, removing the excess disclosant by spraying with tap water, and then determining the amount of plaque present on the occlusal and gingival halves of the buccal surface of each tooth using the following numerical scale: 0=no observable plaque; 1=scattered plaque covering <24% of the tooth surface; 2=plaque covering between 25 and 49% of the tooth surface; 3=plaque covering between 50 and 74% of the tooth surface; and 4=plaque covering 75% or more of the tooth surface. The plaque intensity or thickness was assessed for each area using the following subjective numerical scale: 1=light or thin layer of plaque; 2=moderate thickness of about 1 mm; and 3=heavy or thick layer of plaque in excess of 1 mm in thickness. The results of the assessments were summarized for each animal by multiplying the plaque coverage score by the intensity factor for each occlusal and gingival segment of each tooth, summing the scores for the occlusal and gingival segments to obtain an individual tooth score, and summing the individual tooth scores and dividing by the number of teeth graded.
The treatments were applied as rinses with 4-week test periods using the same procedures as described for Example 2. The amount of plaque present at the conclusion of the test period was graded clinically using the numerical scale described previously.

[4] = zone of mixture vs antimicrobial agent alone, differences of ±3 mm not significant

With `O=C(O)CC(O)(CC(=O)O)C(=O)O` [C (citric acid), citric acid] the “Zones of Inhibition of Growth, FW213” value [1] was 0 mm, the “Zones of Inhibition of Growth, TH16” value [2] was “Weak* (Weak = very slight activity; <1 mm)” and the “Zones of Inhibition of Growth, AV” value [3] was 0 mm.

`[H]/N=C(\N/C(=N/[H])NCCCCCCNC(=N)NC(=N)Nc1ccc(Cl)cc1)Nc1ccc(Cl)cc1` [CHX alone, chlorhexidine gluconate] was tested, and the “Zones of Inhibition of Growth, FW213” value [1] was 13 mm, the “Change of antimicrobial activity on combining with the polycarboxylic acids, S. parasanguis” value [1, 4] was “not altered” and the “Zones of Inhibition of Growth, TH16” value [2] was 6 mm. The “Change of antimicrobial activity on combining with the polycarboxylic acids, S. mutans” value [2, 4] was “not altered”, the “Zones of Inhibition of Growth, AV” value [3] was 20 mm and the “Change of antimicrobial activity on combining with the polycarboxylic acids, A. viscosus” value [3, 4] was “decreased by the presence of fumaric acid”.

In the case of `O=C(O)/C=C/C(=O)O` [F (fumaric acid), fumaric acid], the “Zones of Inhibition of Growth, FW213” value [1] was 0 mm, the “Zones of Inhibition of Growth, TH16” value [2] was “Weak* (Weak = very slight activity; <1 mm)” and the “Zones of Inhibition of Growth, AV” value [3] was 0 mm.

With `O=C(O)CC(O)C(=O)O` (stereo not drawn) [M (malic acid), malic acid] the “Zones of Inhibition of Growth, FW213” value [1] was 0 mm, the “Zones of Inhibition of Growth, TH16” value [2] was “Weak* (Weak = very slight activity; <1 mm)” and the “Zones of Inhibition of Growth, AV” value [3] was 0 mm.

With `Oc1cc(Cl)ccc1Oc1ccc(Cl)cc1Cl` [Triclosan] the “Reduction in the formation of dental plaque” value (from here on “Reduction in the formation”) (dental plaque in cats) was 14.8%.

For `CCCCCCCC(=O)O` [caprylic acid], the “Reduction in the formation” value (dental plaque in cats) was 10.2%.

In the case of `[F][Sn][F]` [stannous fluoride], the “Reduction in the formation” value (dental plaque in cats) was “no reduction”.
